The values that follow come from patent US4091097A, “Treatment of elevated histamine and uric acid levels” (Zaidan Hojin Biseibutsu Kagaku Kenkyu Kai, priority 1973, dated 1978).

For orientation: LD50 means the dose at which mortality reaches 50%. Lower therefore signals greater toxicity.

Data set [1] concerns the target T1, histidine decarboxylase (Rattus norvegicus, UniProt P16453).
T1 construct: a crude enzyme preparation obtained from fetal rats; from tissue
T1 sequence (P16453 1-656): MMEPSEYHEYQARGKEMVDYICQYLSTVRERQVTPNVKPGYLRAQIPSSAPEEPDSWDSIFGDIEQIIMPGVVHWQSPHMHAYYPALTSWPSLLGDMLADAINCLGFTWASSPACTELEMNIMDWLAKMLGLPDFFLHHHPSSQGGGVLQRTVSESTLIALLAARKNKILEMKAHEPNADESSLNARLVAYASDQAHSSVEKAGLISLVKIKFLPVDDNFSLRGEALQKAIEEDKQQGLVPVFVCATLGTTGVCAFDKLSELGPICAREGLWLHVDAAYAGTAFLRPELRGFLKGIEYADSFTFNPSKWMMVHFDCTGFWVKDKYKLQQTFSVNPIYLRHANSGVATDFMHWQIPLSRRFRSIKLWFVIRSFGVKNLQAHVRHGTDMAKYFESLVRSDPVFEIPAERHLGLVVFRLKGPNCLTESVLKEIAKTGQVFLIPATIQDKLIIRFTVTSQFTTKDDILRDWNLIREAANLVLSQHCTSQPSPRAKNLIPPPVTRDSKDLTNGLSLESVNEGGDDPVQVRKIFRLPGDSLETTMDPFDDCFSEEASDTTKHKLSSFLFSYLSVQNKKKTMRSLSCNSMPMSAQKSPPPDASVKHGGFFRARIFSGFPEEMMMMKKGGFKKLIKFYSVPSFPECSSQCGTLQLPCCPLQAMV
The data set can be described thus: Inhibition of Histidine Decarboxylase (14C-histamine formation). It counts as biochemical, fetal rats. The method, then: After two hours of incubation at 37° C., the histamine 2-^14 C formed was collected on an ion exchange resin ("Amberlite" CG-50, ammonia type) from which, after washing with water, the histamine was liberated in 1N aqueous ammonia solution and radioactivity was measured.

The subject of data set [2] is acetic acid-induced stretching movements. Nature of the data set: Analgesic Activity in mice (acetic acid stretching). The class given is in vivo, mice (DDY Strain). The conditions noted are these: control (no drug) 53. The method, then: Male mice of the DDY Strain having mean body weight of 20 g. were divided to the groups of 10 animals each, to which compounds of this invention or aminopyrine in saline solution were administered intraperitoneally (i.p.). The dosage was 200, 50 or 12.5 mg./kg. Then 30 minutes later, 0.2 ml. per 20 g. body weight of 0.7% acetic acid in saline was injected intraperitoneally and the number of characteristic stretching movements counted for 20 minute period and compared with a control group receiving no analgesic.

For data set [3], the system named is pyrexia induced by TTG No. 2. The data set can be described thus: Antipyretic Activity in Pyrexia-Induced Rabbits. It counts as in vivo, Japanese rabbits. As to conditions: 200 mg./kg. oral. The method, then:
Common white male Japanese rabbits, 2.0 - 3.0 kg. body weight, were injected through the ear vein with 20 μg./kg. of a pyrexia inducer TTG No. 2, purified polysaccharide preparation obtained from Pseudomonas aeruginosa (marketed by Fujisawa Pharmaceutical Company, Japan), and the body temperature was monitored with a rectal thermister-type thermometer. Three hours prior to the TTG injection four rabbits in each experimental section orally received the test drug in the dose of 200 mg./kg. One group received aspirin in a dose of 100 mg./kg and a control group no drug.

Data set [4] relates to mice and rats. As to conditions: in vivo. As for the experimental part:
(§1) The acute toxicity was determined for oral and intraperitoneal administration with mice and rats (6 mice and 2 rats in one dose group), and the LD50 value, i.e., the single application dose killing 50% of the test animals, was estimated.

The test system of data set [5] is histidine decarboxylase. The conditions noted are these: cited from earlier work.
Data set [6] deals with animals. As to conditions: cited from earlier work.
In data set [7] the test system is animals. As to conditions: cited from earlier work. The source holds these as a separate data set.
The subject of data set [8] is anaphylactic shock (egg albumin). Nature of the data set: Effect on the Anaphylactic Shock in Mice. It counts as in vivo, mice (DDY Strain).
Protocol: DDY Strain mice were sensitized by subcutaneous injection of a mixture of 0.1 ml. (100 μg.) egg albumin (Nutritional Biochemical Corp. U.S.A., 5 times crystallized) and 0.1 ml. Freund's complete adjuvant (Difco Co., U.S.A.) in saline. The mice were used for the test 3 months thereafter. The sensitized animals were divided in 3 groups of 4 animals each, which were subcutaneously administered the test compound several times before antigen challenge to cause anaphylactic shock. Group 1 received 100 mg./kg. 19 hours before and 50 mg./kg. 9, 4 and 1 hour before challenge. Group 2 received 100 mg./kg. 9 hours before and 50 mg./kg. 4 and 1 hour before challenge. Group 3 was a control group and received only saline solution.
Data set [9] has as its system rats. The data set can be described thus: Subacute toxicity, daily doses for 32 consecutive days. It counts as in vivo. The conditions noted are these: 3.1, 12.5, 50 and 200 mg./kg. daily, oral or i.p., 32 days.
Data set [10] is described as follows: Acute toxicity, rats. As to conditions: rat, in vivo, printed 'for oral administration', then first of 'respective administration'. As for the experimental part:
as §1

Where [11] appears, read: pH 6.8, two hours at 37° C., read-out: Histidine Decarboxylase Inhibition ID50.
Where [12] appears, read: 2 hrs. after TTG, control (no drug) 1.2.
Where [13] appears, read: 4 hrs. after TTG, control (no drug) 1.6.
Setting [14] is: Group 1 (100 mg./kg. 19 h, 50 mg./kg. 9, 4, 1 h before), mouse 1, control 5.
[15] abbreviates: Group 2 (100 mg./kg. 9 h, 50 mg./kg. 4, 1 h before), mouse 1, control 5.

Where two headings read alike, the source gives them in different places.

In the case of `O=C(Nc1cc(Br)c(O)c(C(=O)O)c1)c1ccccc1O` [Compound 6], the IC50 in [1] (setting [11]) was 0.26 µM. The “Analgesic Activity: Stretching Count (20 minutes)” value (“Analgesic Activity” for short) in data set [2] (50 mg./kg. i.p.) turned out to be 25; in [2] (200 mg./kg. i.p.), 12. Also, the “Antipyretic Activity: Elevation of Body Temperature” value (“Antipyretic Activity: Elevation” for short) in [3] (setting [12]) and in data set [3] (setting [13]) was 0.5 °C each time. For the same compound, the comparative toxicity entry in [4] is listed as “comparatively more toxic than the others”.
On to `Cc1cc(OC(=O)c2c(C)cc(O)cc2O)cc(O)c1C(=O)O` [Lecanoric acid, 4'-carboxy-2,3'-dimethyl-4,6,5'-trihydroxyphenylbenzoate], for which the “inhibitory activity to histidine decarboxylase (in words)” value in data set [5] is reported as “strong inhibitory activity”. For the same compound, the “anti-inflammatory activity (in words)” value in data set [6] was “only weak anti-inflammatory activity”. Also, the hydrolysis in animals entry in [7] is listed as “hydrolysed in animals”.
As to `O=C(Nc1ccc(O)c(Br)c1)c1ccc(O)cc1O` [Compound 5], the IC50 in data set [1] (setting [11]) was found to be 0.03 µM. The “Analgesic Activity” value is given as 14 in data set [2] (50 mg./kg. i.p.) and 6 in data set [2] (200 mg./kg. i.p.). The “Antipyretic Activity: Elevation” value in data set [3] (setting [12]) amounted to 0.5 °C; in data set [3] (setting [13]) it was 0.4 °C. Moreover, the comparative toxicity entry in [4] was “comparatively more toxic than the others”.
In the case of `CCC(=O)Oc1ccccc1C(=O)Nc1cc(Cl)c(OC(=O)CC)c(Cl)c1` [Compound 33], in data set [1] (setting [11]), the IC50 is 0.039 µM. Also, the “Analgesic Activity” value in data set [2] (50 mg./kg. i.p.) was 12; in data set [2] (200 mg./kg. i.p.) it was 5. For the same compound, the “Antipyretic Activity: Elevation” value was 0.6 °C in data set [3] (setting [12]) and 0.5 °C in [3] (setting [13]). Moreover, the “Symptoms emerged, time after challenge” value in data set [8] (setting [14]) came to 10 min; in data set [8] (Group 1, mouse 2, control 3), 25 min; in data set [8] (Group 1, mouse 3, control 7), 30 min; in [8] (setting [15]), 20 min; in [8] (Group 2, mouse 2, control 3), 20 min; in data set [8] (Group 2, mouse 3, control 7), 30 min. The “Died, time after challenge” value in data set [8] (Group 1, mouse 1, control 15) was determined as 30 min; in data set [8] (Group 2, mouse 1, control 15), 40 min; in data set [8] (Group 2, mouse 2, control 20), 45 min; in [8] (Group 2, mouse 4, control 20), 40 min. In addition, the “disease symptoms or abnormality attributable to drug dosing” value in data set [9] was “no particular disease symptoms or abnornality attributable to the drug dosing was noted”. Further, in [9], the weight gain entry was “the weight gain was normal”.
`O=C(Nc1cc(Cl)c(O)c(Cl)c1)c1ccccc1O` [Compound 1]: the IC50 in data set [1] came out at 0.022 µM. The “Analgesic Activity” value in data set [2] (50 mg./kg. i.p.) amounted to 11; in [2] (200 mg./kg. i.p.) it was 4. The “Antipyretic Activity: Elevation” value in [3] (setting [12]) was 0.6 °C; in data set [3] (setting [13]) it was 0.5 °C. Moreover, the “Symptoms emerged, time after challenge” value in data set [8] (setting [14]) stood at 15 min; in [8] (Group 1, mouse 2, control 3) it was 20 min; in [8] (setting [15]), 35 min; in data set [8] (Group 2, mouse 2, control 3), 10 min; in data set [8] (Group 2, mouse 3, control 7) it was 25 min; in data set [8] (Group 2, mouse 4, control 3), 20 min. Moreover, the “Died, time after challenge” value stood at 30 min in data set [8] (Group 1, mouse 1, control 15); 35 min in data set [8] (Group 1, mouse 2, control 20); 30 min in data set [8] (Group 2, mouse 2, control 20); 40 min in data set [8] (Group 2, mouse 4, control 20). The LD50 in data set [10] is 2200 mg/kg. Besides, in [9], the “disease symptoms or abnormality attributable to drug dosing” value is “no particular disease symptoms or abnornality attributable to the drug dosing was noted”. The weight gain entry in data set [9] was “the weight gain was normal”.
